Data taken from article PMC8151276, “An Integrated Approach toward NanoBRET Tracers for Analysis of GPCR Ligand Engagement” (Molecules, 2021).

How the values were obtained:
Format in all cases: binding
P2RY14 = target: T1, P2RY14 (Homo sapiens, UniProt Q15391); assay: NanoBRET screen HiBiT-P2RY14 in HEK293; details: P2RY14
T1 construct: purchased Promega (in-house HiBiT-GPCR construct library, NanoBRET)
T1 sequence (Q15391 1-338): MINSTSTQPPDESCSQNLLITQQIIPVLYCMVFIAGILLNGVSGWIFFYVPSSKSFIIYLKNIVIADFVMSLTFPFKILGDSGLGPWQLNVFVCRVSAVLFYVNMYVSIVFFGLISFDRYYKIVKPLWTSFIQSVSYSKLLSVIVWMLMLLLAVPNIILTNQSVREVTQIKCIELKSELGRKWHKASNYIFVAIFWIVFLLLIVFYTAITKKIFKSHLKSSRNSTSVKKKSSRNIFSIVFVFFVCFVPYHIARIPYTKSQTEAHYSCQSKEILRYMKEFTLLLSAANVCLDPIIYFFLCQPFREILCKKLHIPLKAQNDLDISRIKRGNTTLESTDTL
Protocol: (§1) Each tracer candidate was screened across the entire library of HiBiT-GPCR constructs using NanoBRET as the detection modality. As depicted in Figure 4A, the specificity of interactions was evaluated through decrease in BRET due to competitive displacement of a bound tracer by excess parental compound. Each tracer was analyzed for binding to each HiBiT-GPCR fusion in the absence and in the presence of competing parental compound. Briefly, HEK293 cells were transfected with HiBiT-GPCR constructs diluted into promoterless DNA to reduce expression and maximize translocation to the cell surface. Each tracer candidate was then screened at concentrations of 1 μM and 0.1 μM across cells expressing these fusions. Cells were treated for 1.5 h with tracer either alone or in the presence of 20 μM competing parental compound (i.e., control). BRET was measured upon addition of purified LgBiT and subsequent complementation with HiBiT genetically fused to a GPCR. The specificity of interactions was assessed through a decrease in BRET signal due to competitive displacement of the bound tracer. To further gauge the robustness of these interactions, the fold response over the control (i.e., BRETtracer/BRETcontrol) was calculated. We chose a 1.5-fold response, which translates to ≥7-fold signal over noise as the minimal threshold required to score an interaction as positive. […]. Below we highlight the screening results obtained for our exemplary fluorescent tracers based on Clozapine, Amitriptyline and AZD1283.
(§2) HiBiT-GPCR DNA constructs were diluted in 10 mM Tris pH 8 to a final concentration of 0.01 μg/μL, arrayed in 96-well plates and stored at −20 °C. For transfection, HEK293 cells were suspended in Opti-MEM (without phenol red) supplemented with 2% fetal bovine serum (Seradigm) and 100 units/mL penicillin–streptomycin (Gibco) at a final concentration of 220,000 cells/mL and dispensed into white 96-well plates at 90 μL/well. Subsequent transfections and screens were carried using an Agilent Bravo Automated Liquid Handling Platform. First, the 96-well HiBiT DNA arrays were diluted 25-fold in Opti-MEM (without serum or phenol red) to a final concentration of 0.0004 μg/μL and 20 μL of the diluted DNAs were transferred into new 96-well plates. Next, promoterless carrier DNA (1 μg/μL) was diluted 25-fold (0.04 μg/μL) and then dispensed into the diluted arrays at 20 μL/well. Following brief mixing, Viafect transfection reagent (Promega) diluted 16-fold into Opti-MEM was dispensed into the plates at 40 μL/well. After mixing by pipetting, plates were incubated for 10 min on the pipetting station deck. The DNA-transfection reagent complexes were then added to plates containing cells. To facilitate the screen, 10 μL of DNA-transfection reagent complexes were added in duplicates to the top 4 and bottom 4 rows, resulting in two identical 48-well arrays per plate. Plates with transfected cells were incubated for 18–20 h at 37 °C/5% CO2. A screen of each tracer across the entire library using two different concentrations requires duplicate plates of transfected cells. Depending on the number of tracers being screened, transfections can be scaled up using the same ratios. The next day, for each tracer, four 20× screening solutions in tracer dilution buffer (Promega) were prepared: two duplicates at final concentration of 20 μM and two duplicates at a final concentration of 2 μM. A competing unmodified compound was added to one of each duplicate at a final concentration of 400 μM. The four resulting solutions were diluted 4-fold in Opti-MEM without serum or phenol red to generate 5× solutions (5 µM and 0.5 µM tracer +/− 100 μM competing compound). To screen the library, a BioTek MultiFlo FX liquid dispenser was used to dispense 22.5 µL of tracer solution to the top 4 rows and 22.5 µL tracer + competing compound solution to the 4 bottom rows. Plates were briefly mixed on an orbital shaker and incubated for 1.5 h at room temperature. […]

MCHR1 = target: T2, MCHR1 (Homo sapiens, UniProt Q99705); assay: NanoBRET screen HiBiT-MCHR1 in HEK293; details: MCHR1
T2 construct: purchased Promega (in-house HiBiT-GPCR construct library, NanoBRET)
Protocol: as §1, §2

NPBWR1 = target: T3, NPBWR1 (Homo sapiens, UniProt P48145); assay: NanoBRET screen HiBiT-NPBWR1 in HEK293; details: NPBWR1
T3 construct: purchased Promega (in-house HiBiT-GPCR construct library, NanoBRET)
T3 sequence (P48145 1-328): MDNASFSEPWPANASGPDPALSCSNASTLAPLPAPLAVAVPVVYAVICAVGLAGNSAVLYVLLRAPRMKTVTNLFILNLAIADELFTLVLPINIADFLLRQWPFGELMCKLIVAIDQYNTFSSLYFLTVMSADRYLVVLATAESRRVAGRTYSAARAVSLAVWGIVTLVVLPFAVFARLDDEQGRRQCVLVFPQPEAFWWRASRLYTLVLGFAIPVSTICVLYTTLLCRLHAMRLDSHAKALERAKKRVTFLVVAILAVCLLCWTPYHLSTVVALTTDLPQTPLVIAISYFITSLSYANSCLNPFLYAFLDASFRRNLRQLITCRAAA
Protocol: as §1, §2

T2 sequence (Q99705 whole entry): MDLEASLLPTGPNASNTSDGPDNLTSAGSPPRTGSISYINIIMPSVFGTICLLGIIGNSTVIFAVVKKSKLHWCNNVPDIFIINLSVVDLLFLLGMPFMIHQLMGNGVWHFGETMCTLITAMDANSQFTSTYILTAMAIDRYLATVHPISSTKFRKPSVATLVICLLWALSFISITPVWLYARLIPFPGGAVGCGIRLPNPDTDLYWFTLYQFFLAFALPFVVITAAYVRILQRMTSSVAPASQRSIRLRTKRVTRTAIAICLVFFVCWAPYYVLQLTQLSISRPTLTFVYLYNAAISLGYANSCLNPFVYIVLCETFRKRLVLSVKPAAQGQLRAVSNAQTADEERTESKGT

| SMILES | NanoBRET Fold Response (P2RY14; 0.1μM) | NanoBRET Fold Response (P2RY14; 1μM) | NanoBRET Fold Response (MCHR1; 0.1μM) | NanoBRET Fold Response (MCHR1; 1μM) | NanoBRET Fold Response (NPBWR1; 0.1μM) | NanoBRET Fold Response (NPBWR1; 1μM) | NanoBRET Fold Response (P2RY14; tracer 0.1μM) | NanoBRET Fold Response (P2RY14; tracer 1μM) | NanoBRET Fold Response (MCHR1; tracer 0.1μM) | NanoBRET Fold Response (MCHR1; tracer 1μM) | NanoBRET Fold Response (NPBWR1; tracer 0.1μM) | NanoBRET Fold Response (NPBWR1; tracer 1μM) |
| --- | --- | --- | --- | --- | --- | --- | --- | --- | --- | --- | --- | --- |
| O=C(CCc1ccc2n1[B-](F)(F)[N+]1=C(c3ccc[nH]3)C=CC1=C2)NCc1ccc(C(=O)NCCOCCOCCNCC(O)COc2cccc3ccccc23)cc1 (stereo not drawn) [Propranolol-3-NB590] | 1.10 | 1.00 | 0.96 | 1.03 | 1.03 | 0.96 | – | – | – | – | – | – |
| O=C(CCc1ccc2n1[B-](F)(F)[N+]1=C(c3ccc[nH]3)C=CC1=C2)NCCOCCOCCNC(=O)OCCOCCN1CCN(C2=Nc3ccccc3Sc3ccccc32)CC1 [Quetiapine-a-2-NB590] | – | – | – | – | – | – | 0.96 | 0.93 | 1.04 | 0.84 | 1.01 | 1.04 |
| Cc1nc2n(c(=O)c1CCN1CCC(c3noc4cc(F)ccc34)CC1)CCCC2OC(=O)NCCOCCOCCOCCOCCNC(=O)CCc1ccc2n1[B-](F)(F)[N+]1=C(c3ccc[nH]3)C=CC1=C2 (stereo not drawn) [Risperidone-2-NB590] | – | – | – | – | – | – | 1.02 | 0.93 | 0.94 | 0.97 | 1.07 | 1.06 |
| CC(C)N(CC[C@H](c1ccccc1)c1cc(CCNC(=O)CCOCCOCCOCCOCCNC(=O)CCc2ccc3n2[B-](F)(F)[N+]2=C(c4ccc[nH]4)C=CC2=C3)ccc1O)C(C)C [Tolterodine-2-NB590] | – | – | – | – | – | – | 0.93 | 1.08 | 1.18 | 0.95 | 1.26 | 0.94 |
| CC(C)N(CC[C@H](c1ccccc1)c1cc(CCNC(=O)c2ccc(CNC(=O)CCc3ccc4n3[B-](F)(F)[N+]3=C(c5ccc[nH]5)C=CC3=C4)cc2)ccc1O)C(C)C [Tolterodine-BZ-NB590] | – | – | – | – | – | – | 0.86 | 0.88 | 0.83 | 0.95 | 1.00 | 1.01 |
| CCCn1c(=O)c2[nH]c(-c3ccc(OCC(=O)NCCNC(=O)CCOCCNC(=O)c4ccc(CNC(=O)CCc5ccc6n5[B-](F)(F)[N+]5=C(c7ccc[nH]7)C=CC5=C6)cc4)cc3)nc2n(CCC)c1=O [XAC-3-NB590] | – | – | – | – | – | – | 0.59 | 1.36 | 1.01 | 1.03 | 1.03 | 0.96 |
